Experimental data taken from patent US11629192B2, “Methods and pharmaceutical compositions for the treatment of diseases mediated by the NRP-1/OBR complex signaling pathway” (INSERM (Institut National de la Sante et de la Recherche …, priority 2014, dated 2023).

Biological target: T1, OBR (Homo sapiens, UniProt P48357)
T1 sequence (P48357 22-1165): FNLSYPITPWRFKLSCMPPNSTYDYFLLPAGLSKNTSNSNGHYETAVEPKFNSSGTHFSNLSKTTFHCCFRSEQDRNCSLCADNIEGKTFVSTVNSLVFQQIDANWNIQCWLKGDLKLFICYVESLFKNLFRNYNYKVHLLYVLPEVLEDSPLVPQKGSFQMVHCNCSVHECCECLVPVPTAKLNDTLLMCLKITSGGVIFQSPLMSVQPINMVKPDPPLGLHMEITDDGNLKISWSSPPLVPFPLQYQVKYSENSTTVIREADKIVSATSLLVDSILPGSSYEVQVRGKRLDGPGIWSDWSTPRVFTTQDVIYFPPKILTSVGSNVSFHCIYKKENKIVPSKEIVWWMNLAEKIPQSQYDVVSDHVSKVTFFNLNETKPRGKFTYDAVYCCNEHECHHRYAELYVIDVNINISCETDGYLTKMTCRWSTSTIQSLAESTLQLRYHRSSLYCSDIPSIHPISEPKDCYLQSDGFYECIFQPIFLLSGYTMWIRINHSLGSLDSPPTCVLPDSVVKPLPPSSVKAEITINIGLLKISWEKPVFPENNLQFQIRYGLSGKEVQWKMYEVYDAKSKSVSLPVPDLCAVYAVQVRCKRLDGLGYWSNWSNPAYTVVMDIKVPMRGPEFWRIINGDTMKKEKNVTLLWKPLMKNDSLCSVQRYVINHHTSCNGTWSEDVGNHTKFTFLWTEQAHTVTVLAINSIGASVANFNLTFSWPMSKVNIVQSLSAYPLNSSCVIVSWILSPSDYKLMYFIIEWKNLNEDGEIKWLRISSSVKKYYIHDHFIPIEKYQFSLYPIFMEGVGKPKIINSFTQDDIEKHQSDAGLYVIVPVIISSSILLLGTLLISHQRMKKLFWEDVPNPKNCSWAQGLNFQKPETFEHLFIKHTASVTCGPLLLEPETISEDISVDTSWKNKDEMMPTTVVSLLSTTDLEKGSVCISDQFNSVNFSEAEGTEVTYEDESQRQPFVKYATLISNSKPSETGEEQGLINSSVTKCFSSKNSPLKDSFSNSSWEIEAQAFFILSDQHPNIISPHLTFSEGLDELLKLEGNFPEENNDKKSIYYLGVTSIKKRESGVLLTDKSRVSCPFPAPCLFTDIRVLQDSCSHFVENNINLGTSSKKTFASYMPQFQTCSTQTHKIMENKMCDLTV
Assay: Bio-Layer Interferometry (BLI) binding to OBR
Text: FIG. 5. NRP-1, OBR and leptin interactions confirmation using a Bio-Layer Interferometry (BLI) technology (fortebio.com/bli-technology.html): A-Leptin (OB) interaction to OBR is used as a positive control. Human neuropilin-1 (hNRP-1) interact with human OBR with a high affinity and specifically with human leptin (hOB) but not with murine leptin (mOB). VEGF165 binding to hNRP-1 is used as a positive control. B-Leptin and Avastin association increases MDA-MB231 cells transmigration through […] pore Insert. Avastin treatment may prevent a negative feedback control by VEGF of the pro-angiogenic signaling pathway of Leptin. VEGF binds to OBR which confirms our hypothesis that should be more investigated.

binding to OBR: binds
Substance: VEGF
